Reference: ChEMBL document CHEMBL1201862, “PubChem BioAssay data set” (2004)
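The compound was tested at five concentrations on cells cultured in 96-well plates, with a 48-hour exposure period. At the GI50, growth is halved.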 Active and inactive are the calls of the source. Rule as the data show it: active = GI50 up to about 1.1 µM and inactive = higher.

What was measured:
Assay in all cases: growth of human tumour cells (NCI), 48 h
SK-MEL-2 = test system: SK-MEL-2
SF-295 = test system: SF-295
MDA-MB-231 = test system: MDA-MB-231
SN12C = test system: SN12C
COLO 205 = test system: COLO 205
DU-145 = test system: DU-145
OVCAR-8 = test system: OVCAR-8
NCI-H226 = test system: NCI-H226
SF-268 = test system: SF-268
HCT-116 = test system: HCT-116
SF-539 = test system: SF-539
CAKI-1 = test system: CAKI-1
TK-10 = test system: TK-10
EKVX = test system: EKVX
M14 = test system: M14
Malme-3M = test system: Malme-3M
HOP-62 = test system: HOP-62
MDA-N = test system: MDA-N
IGROV-1 = test system: IGROV-1
LOX IMVI = test system: LOX IMVI

SMILES	GI50 (SK-MEL-2)	GI50 (SF-295)	GI50 (MDA-MB-231)	GI50 (SN12C)	GI50 (COLO 205)	GI50 (DU-145)	GI50 (OVCAR-8)	GI50 (NCI-H226)	GI50 (SF-268)	GI50 (HCT-116)	GI50 (SF-539)	GI50 (CAKI-1)	GI50 (TK-10)	GI50 (EKVX)	GI50 (M14)	GI50 (Malme-3M)	GI50 (HOP-62)	GI50 (MDA-N)	GI50 (IGROV-1)	GI50 (LOX IMVI)
O=C(c1ccco1)N(C(=O)N1CCN(c2ccccc2)CC1)S(=O)(=O)c1ccccc1	18.5 µM (inactive)	43.6 µM (inactive)	36.9 µM (inactive)	23.9 µM (inactive)	28.4 µM (inactive)	43.7 µM (inactive)	32.6 µM (inactive)	26.4 µM (inactive)	37.7 µM (inactive)	21.3 µM (inactive)	19.1 µM (inactive)	22.8 µM (inactive)	33.3 µM (inactive)	22.4 µM (inactive)	23 µM (inactive)	29 µM (inactive)	39.1 µM (inactive)	22.5 µM (inactive)	–	–
CN1C/C(=C\c2cccs2)C(=O)/C(=C/c2cccs2)C1	20.8 µM (inactive)	53.8 µM (inactive)	18.3 µM (inactive)	21.8 µM (inactive)	24.4 µM (inactive)	28.6 µM (inactive)	20 µM (inactive)	> 100 µM (inactive)	46.7 µM (inactive)	14.2 µM (inactive)	–	31.1 µM (inactive)	38.1 µM (inactive)	19.1 µM (inactive)	21.1 µM (inactive)	40.1 µM (inactive)	33 µM (inactive)	15.6 µM (inactive)	18.9 µM (inactive)	16.3 µM (inactive)
CC(=O)NC(CCC(=O)C=[N+]=[N-])C(=O)O (stereo not given)	> 100 µM (inactive)	> 100 µM (inactive)	> 100 µM (inactive)	> 100 µM (inactive)	> 100 µM (inactive)	> 100 µM (inactive)	> 100 µM (inactive)	> 100 µM (inactive)	> 100 µM (inactive)	> 100 µM (inactive)	> 100 µM (inactive)	–	> 100 µM (inactive)	> 100 µM (inactive)	> 100 µM (inactive)	> 100 µM (inactive)	> 100 µM (inactive)	> 100 µM (inactive)	> 100 µM (inactive)	> 100 µM (inactive)
Cn1nc(C(=O)N2CC(CCl)c3c2cc([N+](=O)[O-])c2ccccc32)cc1NC(=O)Nc1cc(C(=O)N2CC(CCl)c3c2cc([N+](=O)[O-])c2ccccc32)nn1C (stereo not given)	> 100 µM (inactive)	94.8 µM (inactive)	> 100 µM (inactive)	> 100 µM (inactive)	> 100 µM (inactive)	> 100 µM (inactive)	–	> 100 µM (inactive)	48.5 µM (inactive)	> 100 µM (inactive)	0.0745 µM (active)	> 100 µM (inactive)	> 100 µM (inactive)	> 100 µM (inactive)	> 100 µM (inactive)	> 100 µM (inactive)	32.1 µM (inactive)	> 100 µM (inactive)	–	–
CNC(=S)/N=c1/sc(NC)nc2sc3c(c12)CCCC3	> 100 µM (inactive)	30.8 µM (inactive)	51.9 µM (inactive)	> 100 µM (inactive)	> 100 µM (inactive)	> 100 µM (inactive)	–	> 100 µM (inactive)	34.6 µM (inactive)	> 100 µM (inactive)	–	> 100 µM (inactive)	> 100 µM (inactive)	76.6 µM (inactive)	–	> 100 µM (inactive)	55 µM (inactive)	> 100 µM (inactive)	> 100 µM (inactive)	> 100 µM (inactive)
COc1ccc(C(=O)Cn2c(C(=O)/C=C/c3ccco3)nc3ccccc32)cc1	17.5 µM (inactive)	–	28.7 µM (inactive)	39.1 µM (inactive)	21.7 µM (inactive)	38.5 µM (inactive)	–	50.9 µM (inactive)	24.5 µM (inactive)	29.3 µM (inactive)	34 µM (inactive)	–	44.8 µM (inactive)	–	36.6 µM (inactive)	35.2 µM (inactive)	46 µM (inactive)	26 µM (inactive)	44.1 µM (inactive)	25.8 µM (inactive)
CN(C)CCCNc1ccc2nnn3c4ccc(OC(=O)c5ccc([N+](=O)[O-])cc5)cc4c(=O)c1c23	18.8 µM (inactive)	5.6 µM (inactive)	9.04 µM (inactive)	3.05 µM (inactive)	5.22 µM (inactive)	2.61 µM (inactive)	2.26 µM (inactive)	–	4.09 µM (inactive)	1.51 µM (inactive)	2.9 µM (inactive)	0.649 µM (active)	5.82 µM (inactive)	8.85 µM (inactive)	13 µM (inactive)	4.92 µM (inactive)	3.54 µM (inactive)	11 µM (inactive)	1.07 µM (active)	1.8 µM (inactive)
COc1c(-c2cccs2)oc2c(CC(=O)O)cccc2c1=O	> 100 µM (inactive)	> 100 µM (inactive)	> 100 µM (inactive)	> 100 µM (inactive)	> 100 µM (inactive)	> 100 µM (inactive)	–	–	–	> 100 µM (inactive)	> 100 µM (inactive)	> 100 µM (inactive)	> 100 µM (inactive)	> 100 µM (inactive)	> 100 µM (inactive)	> 100 µM (inactive)	1.2 µM (inactive)	> 100 µM (inactive)	> 100 µM (inactive)	–
Cc1ccc(C(=O)N/N=C(\N=N\c2cccc([N+](=O)[O-])c2)c2ccc(N(C)C)cc2)cc1	> 100 µM (inactive)	48.6 µM (inactive)	> 100 µM (inactive)	> 100 µM (inactive)	> 100 µM (inactive)	16.6 µM (inactive)	97.1 µM (inactive)	> 100 µM (inactive)	> 100 µM (inactive)	> 100 µM (inactive)	> 100 µM (inactive)	68.1 µM (inactive)	> 100 µM (inactive)	25.2 µM (inactive)	29.2 µM (inactive)	–	–	20.7 µM (inactive)	> 100 µM (inactive)	99.8 µM (inactive)
COC(=O)C1C(O)C(C)C(O)C(C)C=C(C)C2=C3C(=C(C)C(=O)c4c(O)c(c(C)c(OC(C)=O)c43)NC(=O)C(C)=C/C=C\C(C)C(O)C(C)C1O)OCO2 (stereo not given)	23.7 µM (inactive)	51.6 µM (inactive)	23.8 µM (inactive)	37.4 µM (inactive)	19.9 µM (inactive)	57.7 µM (inactive)	27.7 µM (inactive)	55.2 µM (inactive)	16.1 µM (inactive)	31.8 µM (inactive)	37.8 µM (inactive)	–	56.1 µM (inactive)	34.3 µM (inactive)	25.2 µM (inactive)	16.2 µM (inactive)	> 100 µM (inactive)	16.9 µM (inactive)	42.1 µM (inactive)	17.1 µM (inactive)
C/C=C1\C(=O)O[C@H]2C/C(C)=C/CC/C(C)=C/CC[C@@]3(C)O[C@@H]3C[C@@H]12	> 100 µM (inactive)	> 100 µM (inactive)	> 100 µM (inactive)	> 100 µM (inactive)	> 100 µM (inactive)	> 100 µM (inactive)	> 100 µM (inactive)	–	> 100 µM (inactive)	> 100 µM (inactive)	> 100 µM (inactive)	> 100 µM (inactive)	> 100 µM (inactive)	> 100 µM (inactive)	> 100 µM (inactive)	> 100 µM (inactive)	> 100 µM (inactive)	> 100 µM (inactive)	61.1 µM (inactive)	–
CCCCCCCCCCCCC(O)C(=O)O (stereo not given)	> 100 µM (inactive)	> 100 µM (inactive)	> 100 µM (inactive)	> 100 µM (inactive)	> 100 µM (inactive)	> 100 µM (inactive)	> 100 µM (inactive)	–	–	> 100 µM (inactive)	> 100 µM (inactive)	> 100 µM (inactive)	> 100 µM (inactive)	–	> 100 µM (inactive)	> 100 µM (inactive)	> 100 µM (inactive)	> 100 µM (inactive)	> 100 µM (inactive)	> 100 µM (inactive)
C#C[C@]1(O)CC[C@H]2[C@@H]3CCC4=C/C(=N/CCOC(=O)c5cccc6c(=O)c7ccccc7[nH]c56)CC[C@@H]4[C@H]3CC[C@@]21C	30.1 µM (inactive)	23 µM (inactive)	15.7 µM (inactive)	74.5 µM (inactive)	37.1 µM (inactive)	32.4 µM (inactive)	21 µM (inactive)	76.2 µM (inactive)	53.6 µM (inactive)	42.9 µM (inactive)	–	51.3 µM (inactive)	45.8 µM (inactive)	46.3 µM (inactive)	41.7 µM (inactive)	34.6 µM (inactive)	37.2 µM (inactive)	50.7 µM (inactive)	29.5 µM (inactive)	28.3 µM (inactive)
CCN(CC)c1ccc2cc(C(N)=O)c(=N)oc2c1	21.3 µM (inactive)	–	32.1 µM (inactive)	31.3 µM (inactive)	35.2 µM (inactive)	40.9 µM (inactive)	50 µM (inactive)	19.7 µM (inactive)	42.3 µM (inactive)	35.1 µM (inactive)	4.15 µM (inactive)	35.4 µM (inactive)	–	–	34.4 µM (inactive)	–	38.6 µM (inactive)	38.2 µM (inactive)	21.1 µM (inactive)	29.5 µM (inactive)
COc1ccccc1NCc1nnc(CCCCCCCCc2nnc(CNc3ccccc3OC)o2)o1	> 100 µM (inactive)	> 100 µM (inactive)	> 100 µM (inactive)	> 100 µM (inactive)	> 100 µM (inactive)	> 100 µM (inactive)	> 100 µM (inactive)	–	> 100 µM (inactive)	> 100 µM (inactive)	–	> 100 µM (inactive)	> 100 µM (inactive)	> 100 µM (inactive)	> 100 µM (inactive)	> 100 µM (inactive)	> 100 µM (inactive)	> 100 µM (inactive)	–	> 100 µM (inactive)
